No end group written: not given here.
Columns and labels:
HLA-B*5401 = HLA-B*5401 (Homo sapiens, UniProt P01889, A329T/C349S/D138N/D201E/E176V/E187T/E204Q/E69G/I76V/K202T/L119W/R155S/R180L/S121T/S35A/S48A/V127L/V306I/V36M/Y140L); assay: biochemical
HLA-B51 (B*5101) = HLA-B51 (B*5101) (Homo sapiens, UniProt P01889, A329T/A93T/A95T/C349S/D138N/D201E/D98Y/E187L/E204Q/E69T/G107R/I218V/K202T/L105A/L119W/N104I/Q94N/R106L/R155S/R180L/S101N/S121T/S35A/S48A/V306I/V36M/Y195H/Y91F); assay: purified HLA class I binding assay, B51 (B*5101)
HLA-B*0702 = target: T1, HLA-B*0702 (Homo sapiens, UniProt P01889); assay: purified HLA class I binding assay, B*0702
T1 construct: endogenous in cells; host or cells: GM3107

HLA-B*5301 = HLA-B*5301 (Homo sapiens, UniProt P01889, A329T/A93T/A95T/C349S/D201E/D98Y/E176V/E187L/E204Q/E69T/G107R/I218V/K202T/L105A/L119I/N104I/Q94N/R106L/R155S/R180L/S101N/S121R/S35A/S48A/T118I/V127L/V306I/V36M/Y140S/Y91F); assay: purified HLA class I binding assay, B*5301
HLA-B*3501 = HLA-B*3501 (Homo sapiens, UniProt P01889, A329T/A93T/A95T/C349S/D201E/D98Y/E176V/E187L/E204Q/E69T/I218V/K202T/L119I/Q94N/R155S/R180L/S121R/S35A/S48A/T118I/V127L/V306I/V36M/Y140S/Y91F); assay: purified HLA class I binding assay, B*3501
HLA-DRB1*0405 (DR4w15) = HLA-DRB1*0405 (DR4w15) (Homo sapiens, UniProt P01903+P01911, A100R/A169T/D86S/F76Y/I96L/K127E/L162R/M171V/N62H/P40V/Q125Y/R42H/S133A/S149N/S66Y/V115G/V209L/W38E); assay: purified HLA class II binding assay, DRB1*0405 (DR4w15)
HLA-DRB5*0101 (DR2w2β2) = target: T2, HLA-DRB5*0101 (DR2w2β2) (Homo sapiens, UniProt P01903+Q30154); assay: biochemical; format: binding
T2 construct: expressed in transfected cells

HLA-DRB1*0301 (DR3) = target: T3, HLA-DRB1*0301 (DR3) (Homo sapiens, UniProt P01903+P01911, A100K/A102G/A103R/A169T/F55Y/I96L/K41T/L162R/M171V/P40S/Q125H/Q178H/Q39Y/R42S/S66N/T106N/T262R/W38E/Y61H); assay: purified HLA class II binding assay, DRB1*0301 (DR3), pH 4.5
T3 construct: endogenous in cells; host or cells: MAT

HLA-DRB1*0802 (DR8w2) = target: T4, HLA-DRB1*0802 (DR8w2) (Homo sapiens, UniProt P01903+P01911, A100R/A103L/A169T/F76Y/H45Y/I96F/K41T/L162R/M171V/P40S/Q125H/Q178H/Q39Y/Q99D/R218S/R42G/S66Y/V115G/W38E); assay: biochemical; format: binding
T4 construct: endogenous in cells

HLA-DRB1*0701 (DR7) = target: T5, HLA-DRB1*0701 (DR7) (Homo sapiens, UniProt P01903+P01911, A100R/A102G/A103Q/D57E/D86V/E43K/F76Y/K127E/L162R/M171V/P40G/Q125H/Q99D/R33Q/R42Y/R54Q/S133A/S66F/T210M/V115G/Y107V/Y59L/Y89S); assay: biochemical; format: binding
T5 construct: endogenous in cells; host or cells: Pitout

HLA-DRB1*0401 (DR4w4) = target: T6, HLA-DRB1*0401 (DR4w4) (Homo sapiens, UniProt P01903+P01911, A100K/A169T/F76Y/I96L/K127E/L162R/M171V/N62H/P40V/Q125Y/R42H/S133A/S149N/S66Y/V115G/V209L/W38E); assay: purified HLA class II binding assay, DRB1*0401 (DR4w4)
T6 construct: endogenous in cells; host or cells: Preiss

HLA-DRB1*1302 (DR6w19) = HLA-DRB1*1302 (DR6w19) (Homo sapiens, UniProt P01903+P01911, A100E/A169T/K41T/L162R/M171V/P40S/Q125H/Q178H/Q39Y/Q99D/R42S/S66N/T262R/V115G/W38E/Y61H); assay: purified HLA class II binding assay, DRB1*1302 (DR6w19)
HLA-DRB1*0901 (DR9) = target: T7, HLA-DRB1*0901 (DR9) (Homo sapiens, UniProt P01903+P01911, A100R/A103E/D57H/D86V/F55Y/F60I/F76Y/I96F/K127E/L162R/M171V/P40D/Q125H/Q99R/R33Q/R42F/S133A/S66N/T210M/V115G/W38K/Y107V/Y59G/Y89S); assay: biochemical; format: binding
T7 construct: endogenous in cells

HLA-DRB1*1101 (DR5w11) = target: T8, HLA-DRB1*1101 (DR5w11) (Homo sapiens, UniProt P01903+P01911, A100R/A169T/A87E/I96F/K41T/L162R/M171V/P40S/Q125H/Q178H/Q39Y/Q99D/R42S/S66Y/T262R/V115G/W38E); assay: biochemical; format: binding
T8 construct: endogenous in cells

HLA-DRB1*1501 (DR2w2β1) = target: T9, HLA-DRB1*1501 (DR2w2β1) (Homo sapiens, UniProt P01903+P01911); assay: purified HLA class II binding assay, DRB1*1501 (DR2w2β1)
T9 construct: expressed in transfected cells

HLA-DRB1*1201 (DR5w12) = target: T10, HLA-DRB1*1201 (DR5w12) (Homo sapiens, UniProt P01903+P01911, A100R/A169T/D57E/D86V/F55L/H45Y/K41T/L162R/M171V/P40S/Q125H/Q178H/Q39Y/Q99D/R42G/S66L/T262R/V114A/V67L/W38E/Y59H/Y61H/Y89S); assay: purified HLA class II binding assay, DRB1*1201 (DR5w12)
T10 construct: endogenous in cells

[1] = tested on: PBMC from patients infected with HIV; assay: recall CTL responses, PBMC from HIV-infected patients, 51Cr release; format: cell-based, human
[2] = tested on: HLA-A11/K^b transgenic mice; assay: CTL induction in HLA-A11/K^b transgenic mice after peptide immunization; format: in vivo; conditions: protocol as for HLA-A2 transgenic mice
HLA-A*6802 = HLA-A*6802 (Homo sapiens, UniProt P04439, A269V/D140Y/D185E/E176V/E277Q/E87N/F33Y/G231S/I121R/I166T/I218V/L180W/L300P/L318F/N151K/P208A/P217A/Q86R/R138H/R169H/S129P/T345S/V36M); assay: purified HLA class I binding assay, A*6802
HLA-A*0203 = HLA-A*0203 (Homo sapiens, UniProt P04439, A173T/D140Y/D185E/D98H/E277Q/G131W/G231S/I119V/I121R/I166T/I218V/L180W/L300P/L318F/N151K/N90K/P208A/P217A/Q86G/Q94H/R138H/R169H/T345S); assay: purified HLA class I binding assay, A*0203
[3] = tested on: A*0201/K^b transgenic mice; assay: CTL induction in A*0201/K^b transgenic mice after peptide immunization; format: in vivo
HLA-A*0206 = HLA-A*0206 (Homo sapiens, UniProt P04439, D140Y/D185E/D98H/E176V/E277Q/F33Y/G131W/G231S/I119V/I121R/I166T/I218V/L300P/L318F/N151K/N90K/P208A/P217A/Q86G/Q94H/R138H/R169H/T345S); assay: purified HLA class I binding assay, A*0206
[4] = HIV DR super motif peptides, unit not given

T8 sequence (P01903 26-254, other chains not shown): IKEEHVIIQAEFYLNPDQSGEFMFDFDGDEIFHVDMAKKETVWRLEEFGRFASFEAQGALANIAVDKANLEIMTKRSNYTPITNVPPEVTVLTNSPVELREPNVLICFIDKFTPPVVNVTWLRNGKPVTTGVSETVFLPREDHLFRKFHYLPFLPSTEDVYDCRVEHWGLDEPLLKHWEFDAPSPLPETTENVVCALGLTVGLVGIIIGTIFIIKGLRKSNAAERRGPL
T6 sequence (P01903 26-254 partner, other chains not shown): as the sequence (P01903 26-254, other chains not shown) above
T3 sequence (P01903 26-254 partner, other chains not shown): as the sequence (P01903 26-254, other chains not shown) above

CC(C)C[C@H](NC(=O)[C@H](CO)NC(=O)[C@H](CCCNC(=N)N)NC(=O)[C@H](CC(C)C)NC(=O)[C@H](CO)NC(=O)[C@H](C)NC(=O)[C@H](CC(C)C)NC(=O)[C@@H]1CCCN1C(=O)[C@@H](N)Cc1ccc(O)cc1)C(=O)N[C@@H](Cc1ccccc1)C(=O)O [15.0268]
IC50 (HLA-B*5401): 714 nM | IC50 (HLA-B51 (B*5101)): 39.3 nM

CC(C)C[C@H](NC(=O)[C@@H]1CCCN1C(=O)[C@@H](NC(=O)[C@H](CCC(N)=O)NC(=O)[C@@H]1CCCN1C(=O)[C@H](CCCNC(=N)N)NC(=O)[C@@H](NC(=O)[C@@H]1CCCN1C(=O)[C@@H](N)Cc1ccccc1)C(C)C)C(C)C)C(=O)O [1146.01]
IC50 (HLA-B*0702): 15.7 nM | IC50 (HLA-B*5301): 0.482 µM | IC50 (HLA-B*3501): 0.043 µM | IC50 (HLA-B51 (B*5101)): 11.6 nM

CC[C@H](C)[C@H](NC(=O)CNC(=O)[C@H](CCCCN)NC(=O)[C@H](Cc1c[nH]cn1)NC(=O)[C@H](C)NC(=O)[C@@H]1CCCN1C(=O)[C@@H](NC(=O)[C@H](Cc1c[nH]c2ccccc12)NC(=O)[C@H](C)NC(=O)[C@H](CC(C)C)NC(=O)[C@H](Cc1ccc(O)cc1)NC(=O)[C@@H](NC(=O)[C@H](CCCCN)NC(=O)[C@@H](N)CCC(=O)O)C(C)C)C(C)C)C(=O)NCC(=O)O [Peptide 27.0361]
IC50 (HLA-DRB1*0405 (DR4w15)): 27 nM | IC50 (HLA-DRB5*0101 (DR2w2β2)): 4.9 nM | IC50 (HLA-DRB1*0301 (DR3)): 3.23 µM | IC50 (HLA-DRB1*0802 (DR8w2)): 31 nM | IC50 (HLA-DRB1*0701 (DR7)): 18 nM | IC50 (HLA-DRB1*0401 (DR4w4)): 9.3 nM | IC50 (HLA-DRB1*1302 (DR6w19)): 3.5 µM | IC50 (HLA-DRB1*0901 (DR9)): 144 nM | IC50 (HLA-DRB1*1101 (DR5w11)): 37 nM | IC50 (HLA-DRB1*1501 (DR2w2β1)): 21 nM | IC50 (HLA-DRB1*1201 (DR5w12)): 6.48 µM

CC(C)[C@H](N)C(=O)N[C@H](C(=O)N[C@H](C(=O)N[C@@H](Cc1ccc(O)cc1)C(=O)N[C@@H](Cc1ccc(O)cc1)C(=O)NCC(=O)N[C@H](C(=O)N1CCC[C@H]1C(=O)N[C@H](C(=O)N[C@@H](Cc1c[nH]c2ccccc12)C(=O)N[C@@H](CCCCN)C(=O)O)C(C)C)C(C)C)C(C)C)[C@@H](C)O [Peptide 1069.47]
immunogenicity in HIV-infected patients ([1]; shown by collaborators): immunogenic in HIV-infected patients | induction of CTL in HLA-A11 transgenic mice [2]: induced CTL responses in transgenic mice

CC[C@H](C)[C@H](NC(=O)CNC(=O)[C@H](Cc1c[nH]c2ccccc12)NC(=O)[C@@H](NC(=O)[C@@H](NC(=O)[C@H](CC(C)C)NC(=O)[C@H](CCC(N)=O)NC(=O)[C@H](CC(C)C)NC(=O)[C@@H](N)CC(C)C)[C@@H](C)O)C(C)C)C(=O)O [Peptide 1261.02]
Immunogenicity patients ([1]; A2-supertype peptides, positive/tested HIV-infected patients): 2/8 | Immunogenicity patients ([1]; A2 Supermotif peptides, positive/tested patients): 2/8 | IC50 (HLA-A*6802): 645 nM | IC50 (HLA-A*0203): 43.5 nM | Immunogenicity transgenic ([3]; A2 Supermotif peptides, positive/tested transgenic): 1/6 | Immunogenicity transgenic ([3]; A*0201/K^b transgenic mice, positive/tested): 1/6 | IC50 (HLA-A*0206): 24.7 nM

CPKVSFEPI [1296.02]
IC50 (HLA-B*0702): 100 nM | IC50 (HLA-B*5401): 100 nM | IC50 (HLA-B*5301): 2.45 µM | IC50 (HLA-B*3501): 5.14 µM

FPISPIETV [Peptide 1261.01]
IC50 (HLA-B*0702): 3440 nM | IC50 (HLA-B*5401): 9.1 nM | IC50 (HLA-B*3501): 1.04 µM

HPVHAGPIA [1292.13]
IC50 (HLA-B*0702): 50 nM | IC50 (HLA-B*5401): 4.3 nM | IC50 (HLA-B*5301): 4.43 µM | IC50 (HLA-B*3501): 0.0116 µM

IPYNPQSQGVV [1296.03]
IC50 (HLA-B*5401): 66.7 nM | IC50 (HLA-B*5301): 46.5 µM | IC50 (HLA-B*3501): 72 µM | IC50 (HLA-B51 (B*5101)): 120 nM

QQHLLQLTVWGTKQL
DR4w15 binding (HLA-DRB1*0405 (DR4w15); [4]): 0.2700 | DR2w2β2 binding (HLA-DRB5*0101 (DR2w2β2)): 0.0580 | DR3 binding (HLA-DRB1*0301 (DR3); [4]): −0.0043 | DR8w2 binding (HLA-DRB1*0802 (DR8w2)): 0.0210 | DR7 binding (HLA-DRB1*0701 (DR7)): 0.3900 | DR4w4 binding (HLA-DRB1*0401 (DR4w4); [4]): 0.0330 | DR6w19 binding (HLA-DRB1*1302 (DR6w19); [4]): 0.0180 | DR9 binding (HLA-DRB1*0901 (DR9)): 0.5100 | DR5w11 binding (HLA-DRB1*1101 (DR5w11)): 0.0036 | DR2 wβ1 binding (HLA-DRB1*1501 (DR2w2β1); [4]): 0.7500 | DR5w12 binding (HLA-DRB1*1201 (DR5w12); [4]): 0.4900

VPLQLPPL [29.0028]
IC50 (HLA-B*5401): 270 nM | IC50 (HLA-B*5301): 46.5 µM | IC50 (HLA-B*3501): 6 µM | IC50 (HLA-B51 (B*5101)): 0.8 nM
